Test results: paper PMC12150326 (The Journal of Organic Chemistry, 2025)
Where two headings read alike, the source gives them in different places.

Assays:
Type in all cases: cell-based, human
ACHN = test system: ACHN
Summary of the method: (§1)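 Both axial enantiomers of the parent and of the iso series were evaluated in the NCI cancer cell panel at doses of 100 μM, 10 μM, 1 μM, 0.1 μM and 0.01 μM.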

CCRF-CEM = test system: CCRF-CEM
Summary of the method: as §1

HCT-116 = test system: HCT-116
Summary of the method: (§2)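 Tested at five doses, 100 μM to 0.01 μM in 10-fold steps, in the NCI 60-cell-line panel; TGI responses used for COMPARE analysis.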

HL-60(TB) = test system: HL-60(TB)
Summary of the method: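 Tested in five doses (top 100 μM, lowest 0.01 μM) within the 60 Cell Screen; COMPARE used TGI responses relative to known tubulin inhibitors.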

HT29 = test system: HT29
Summary of the method: as §2

K-562 = test system: K-562
Summary of the method: as §2

MCF7 = test system: MCF7
Summary of the method: as §2

MDA-MB-231/ATCC = test system: MDA-MB-231/ATCC
Summary of the method: as §2

MDA-MB-468 = test system: MDA-MB-468
Summary of the method: as §2

MOLT-4 = test system: MOLT-4
Summary of the method: as §2

NCI 60 cell lines = test system: NCI 60 cell lines
Summary of the method: as §2

NCI-H522 = test system: NCI-H522
Summary of the method: as §2

NCI/ADR-RES = test system: NCI/ADR-RES
Summary of the method: as §2

OVCAR-8 = test system: OVCAR-8
Summary of the method: as §2

PC-3 = test system: PC-3
Summary of the method: as §1

RPMI-8226 = test system: RPMI-8226
Summary of the method: as §2

RXF 393 = test system: RXF 393
Summary of the method: as §2

SF-295 = test system: SF-295
Summary of the method: as §2

SK-MEL-2 = test system: SK-MEL-2
Summary of the method: as §2

SK-MEL-5 = test system: SK-MEL-5
Summary of the method: as §2

SK-OV-3 = test system: SK-OV-3
Summary of the method: as §2

T-47D = test system: T-47D
Summary of the method: as §2

TK-10 = test system: TK-10
Summary of the method: as §1

U251 = test system: U251
Summary of the method: as §2

UACC-257 = test system: UACC-257
Summary of the method: as §2

UO-31 = test system: UO-31
Summary of the method: as §2

Which results are given for `COc1cc(C)c(-c2ccc(OC)c(=O)cc2C)c(OC)c1OC` (single isomer, unassigned) [(aR)-6]?
Log10GI50 (ACHN): -5.27 Molar; Log10LC50 (ACHN): > -4.00 Molar; Log10TGI (ACHN): > -4.00 Molar; GI50 (ACHN; Homo sapiens): 5.37 µM; Log10GI50 (ACHN; listed as (aR)-DM-MTC): -5.27 Molar; Log10GI50 (CCRF-CEM): -5.71 Molar; Log10LC50 (CCRF-CEM): > -4.00 Molar; Log10TGI (CCRF-CEM): > -4.00 Molar; GI50 (CCRF-CEM; Homo sapiens): 1.95 µM; Log10GI50 (CCRF-CEM; listed as (aR)-DM-MTC): -5.71 Molar; Log10GI50 (HCT-116): -5.71 Molar; Log10LC50 (HCT-116): > -4.00 Molar; Log10TGI (HCT-116): > -4.00 Molar; GI50 (HCT-116; Homo sapiens): 1.95 µM; Log10GI50 (HCT-116; listed as (aR)-DM-MTC): -5.71 Molar; Log10GI50 (HL-60(TB)): -6.16 Molar; Log10LC50 (HL-60(TB)): > -4.00 Molar; Log10TGI (HL-60(TB)): -5.10 Molar; GI50 (HL-60(TB); Homo sapiens): 0.69 µM; Log10GI50 (HL-60(TB); listed as (aR)-DM-MTC): -6.16 Molar; Log10GI50 (HT29): -5.73 Molar; Log10LC50 (HT29): > -4.00 Molar; Log10TGI (HT29): -5.02 Molar; GI50 (HT29; Homo sapiens, HT-29): 1.86 µM; Log10GI50 (HT29; listed as (aR)-DM-MTC): -5.73 Molar; Log10GI50 (K-562): -6.31 Molar; Log10LC50 (K-562): > -4.00 Molar; Log10TGI (K-562): > -4.00 Molar; GI50 (K-562; Homo sapiens, K562): 0.49 µM; Log10GI50 (K-562; listed as (aR)-DM-MTC): -6.31 Molar; Log10GI50 (MCF7): -6.11 Molar; Log10LC50 (MCF7): > -4.00 Molar; Log10TGI (MCF7): > -4.00 Molar; GI50 (MCF7; Homo sapiens): 0.78 µM; Log10GI50 (MCF7; listed as (aR)-DM-MTC): -6.11 Molar; Log10GI50 (MDA-MB-231/ATCC): -5.59 Molar; Log10LC50 (MDA-MB-231/ATCC): > -4.00 Molar; Log10TGI (MDA-MB-231/ATCC): > -4.00 Molar; GI50 (MDA-MB-231/ATCC; Homo sapiens): 2.57 µM; Log10GI50 (MDA-MB-231/ATCC; listed as (aR)-DM-MTC): -5.59 Molar; Log10GI50 (MDA-MB-468): -5.97 Molar; Log10LC50 (MDA-MB-468): > -4.00 Molar; Log10TGI (MDA-MB-468): > -4.00 Molar; GI50 (MDA-MB-468; Homo sapiens): 1.07 µM; Log10GI50 (MDA-MB-468; listed as (aR)-DM-MTC): -5.97 Molar; Log10GI50 (MOLT-4): -5.58 Molar; Log10LC50 (MOLT-4): > -4.00 Molar; Log10TGI (MOLT-4): > -4.00 Molar; GI50 (MOLT-4; Homo sapiens): 2.63 µM; Log10GI50 (MOLT-4; listed as (aR)-DM-MTC): -5.58 Molar; fold less potent than colchicine, growth inhibition (NCI 60 cell lines): 10 to 50 fold; selectivity range (NCI 60 cell lines; NCI-60, GI50 level): 2.39 log units; Log10 Range at TGI (NCI 60 cell lines; NCI-60 cell line selectivity, listed as (aR)-DM-MTC (6)): 2.13; GI50 (NCI 60 cell lines; NCI-60 mean): 2.4 µM; Mean TGI (NCI 60 cell lines; NCI-60 mean total growth inhibition): 63 µM; Delta Log10GI50 (NCI 60 cell lines; mean graph): 0.95; Delta Log10LC50 (NCI 60 cell lines; mean graph): 0.73; Delta Log10TGI (NCI 60 cell lines; mean graph): 1.93; Range Log10GI50 (NCI 60 cell lines; mean graph): 2.39; Range Log10LC50 (NCI 60 cell lines; mean graph): 0.74; Range Log10TGI (NCI 60 cell lines; mean graph): 2.13; _MID Log10GI50 (NCI 60 cell lines; mean graph midpoint): -5.62 Molar; _MID Log10LC50 (NCI 60 cell lines; mean graph midpoint): -4.01 Molar; _MID Log10TGI (NCI 60 cell lines; mean graph midpoint): -4.2 Molar; Log10GI50 (NCI-H522): -5.73 Molar; Log10LC50 (NCI-H522): > -4.00 Molar; Log10TGI (NCI-H522): -5.27 Molar; GI50 (NCI-H522; Homo sapiens): 1.86 µM; Log10GI50 (NCI-H522; listed as (aR)-DM-MTC): -5.73 Molar; Log10GI50 (NCI/ADR-RES): -5.76 Molar; Log10LC50 (NCI/ADR-RES): > -4.00 Molar; GI50 (NCI/ADR-RES; Homo sapiens): 1.74 µM; Log10GI50 (NCI/ADR-RES; listed as (aR)-DM-MTC): -5.76 Molar; Log10GI50 (OVCAR-8): -5.47 Molar; Log10LC50 (OVCAR-8): > -4.00 Molar; Log10TGI (OVCAR-8): > -4.00 Molar; GI50 (OVCAR-8; Homo sapiens): 3.39 µM; Log10GI50 (OVCAR-8; listed as (aR)-DM-MTC): -5.47 Molar; Log10GI50 (PC-3): -5.64 Molar; Log10LC50 (PC-3): > -4.00 Molar; Log10TGI (PC-3): > -4.00 Molar; GI50 (PC-3; Homo sapiens): 2.29 µM; Log10GI50 (PC-3; listed as (aR)-DM-MTC): -5.64 Molar; Log10GI50 (RPMI-8226): -5.39 Molar; Log10LC50 (RPMI-8226): > -4.00 Molar; Log10TGI (RPMI-8226): > -4.00 Molar; GI50 (RPMI-8226; Homo sapiens): 4.07 µM; Log10GI50 (RPMI-8226; listed as (aR)-DM-MTC): -5.39 Molar; Log10GI50 (RXF 393): -5.71 Molar; Log10LC50 (RXF 393): > -4.00 Molar; Log10TGI (RXF 393): > -4.00 Molar; GI50 (RXF 393; Homo sapiens): 1.95 µM; Log10GI50 (RXF 393; listed as (aR)-DM-MTC): -5.71 Molar; Log10GI50 (SF-295): -5.76 Molar; Log10LC50 (SF-295): > -4.00 Molar; Log10TGI (SF-295): > -4.00 Molar; GI50 (SF-295; Homo sapiens): 1.74 µM; Log10GI50 (SF-295; listed as (aR)-DM-MTC): -5.76 Molar; Log10GI50 (SK-MEL-2): -6.05 Molar; Log10LC50 (SK-MEL-2): > -4.00 Molar; Log10TGI (SK-MEL-2): -5.18 Molar; GI50 (SK-MEL-2; Homo sapiens): 0.89 µM; Log10GI50 (SK-MEL-2; listed as (aR)-DM-MTC): -6.05 Molar; Log10GI50 (SK-MEL-5): -5.50 Molar; Log10LC50 (SK-MEL-5): > -4.00 Molar; Log10TGI (SK-MEL-5): -4.42 Molar; GI50 (SK-MEL-5; Homo sapiens): 3.16 µM; Log10GI50 (SK-MEL-5; listed as (aR)-DM-MTC): -5.5 Molar; Log10GI50 (SK-OV-3): -5.59 Molar; Log10LC50 (SK-OV-3): > -4.00 Molar; Log10TGI (SK-OV-3): > -4.00 Molar; GI50 (SK-OV-3; Homo sapiens): 2.57 µM; Log10GI50 (SK-OV-3; listed as (aR)-DM-MTC): -5.59 Molar; Log10GI50 (T-47D): -5.15 Molar; Log10LC50 (T-47D): > -4.00 Molar; Log10TGI (T-47D): > -4.00 Molar; GI50 (T-47D; Homo sapiens, T47D): 7.08 µM; Log10GI50 (T-47D; listed as (aR)-DM-MTC): -5.15 Molar; Log10GI50 (TK-10): -4.18 Molar; Log10LC50 (TK-10): > -4.00 Molar; Log10TGI (TK-10): > -4.00 Molar; GI50 (TK-10; Homo sapiens): 66.1 µM; Log10GI50 (TK-10; listed as (aR)-DM-MTC): -4.18 Molar; Log10GI50 (U251): -5.53 Molar; Log10LC50 (U251): > -4.00 Molar; Log10TGI (U251): > -4.00 Molar; GI50 (U251; Homo sapiens, U-251): 2.95 µM; Log10GI50 (U251; listed as (aR)-DM-MTC): -5.53 Molar; Log10GI50 (UACC-257): -5.11 Molar; Log10LC50 (UACC-257): > -4.00 Molar; Log10TGI (UACC-257): > -4.00 Molar; GI50 (UACC-257; Homo sapiens): 7.76 µM; Log10GI50 (UACC-257; listed as (aR)-DM-MTC): -5.11 Molar; Log10GI50 (UO-31): -5.16 Molar; Log10LC50 (UO-31): > -4.00 Molar; Log10TGI (UO-31): > -4.00 Molar; GI50 (UO-31; Homo sapiens): 6.92 µM; Log10GI50 (UO-31; listed as (aR)-DM-MTC): -5.16 Molar
